Literature values as cited in patent US20100166856A1, “PHARMACEUTICAL COMPOSITION IN THE FORM OF COATED MICROSPHERES FOR THE MODIFIED RELEASE OF A MUSCLE RELAXANT AND AN NSAID” (LABORATORIOS SENOSIAIN S.A. DE C.V., priority 2006, published 2010).

Key:
[1] = after administration
[2] = 22.5 mg of meloxicam
metabolism of tizanidine = conditions: combination of tizanidine with rofecoxib

For `Cc1cnc(NC(=O)C2=C(O)c3ccccc3S(=O)(=O)N2C)s1` [meloxicam], the “time at which maximum plasma concentration is reached” value [1] is given as 4 to 5 h, the “time of second concentration peak” value ([1]; indicates gastrointestinal re-circulation) is given as 12 to 14 h and the “effect of higher dose” value [2] is given as “only an increase in gastrointestinal adverse effect was observed”.
In the case of `CS(=O)(=O)c1ccc(C2=C(c3ccccc3)C(=O)OC2)cc1` [rofecoxib], the “pharmacokinetic interaction with tizanidine” value (metabolism of tizanidine) is given as “inhibits the metabolism of tizanidine”.
For `Clc1ccc2nsnc2c1NC1=NCCN1` [tizanidine], the half-life time (after oral administration) is listed as “approximately 2.5 hours”, the excretion in feces (in vivo) is listed as “about 20%” and the excretion in urine (in vivo) is listed as 60%.
